Consider six molecules from EP0219838A2, “Carbocyclic purine nucleosides, their production and use” (Takeda Chemical Industries, Ltd., priority 1985, dated 1987).

Converted amounts (≈) assume the structure as drawn. Where two headings read alike, the source gives them in different places.

Common to all, as to type: cell-based
For series [1], the system named is Herpes Simplex Virus Type 1, HF Strain. Put plainly: Inhibitory effect against herpes simplex virus (reduction of viral cytopathogenic effect) in Vero cells. The source says:
(§1) Vero cells were infected with 100 TCID₅₀ (50% tissue-culture infected doses) of viruses and cultured with various concentrations of the compounds.

Series [2] in a line: Cytotoxicity in non-infected control culture (Vero cells). The settings on record: monkey.
Source text: as §1

The subject of a further series is Adenovirus, Type 3. Nature of the series: Antiadenovirus activity (reduction of viral cytopathogenic effect) in FL cells. Particulars: Human mastadenovirus B, 192 h; 50% inhibitory dose; FL cells infected with 100 TCID50; observed eight days after the infection; read-out: ID50 (the source's name). An excerpt:
FL cells were infected with 100 TCID₅₀ (50% tissueculture infected doses) of viruses and cultured with various concentrations of the compouns.

The nature of series [3]: Cytotoxicity in non-infected control culture (FL cells). The settings on record: human, non-infected FL cell control culture, eight days.
Where [4] appears, read: Human alphaherpesvirus 1, Vero, 72 h, read-out: ID50.
Where [5] appears, read: Human alphaherpesvirus 1, 72 h, concentration required to reduce the viral cytopathogenic effect by 50%, Vero cells infected with 100 TCID50, observed three days after the infection, read-out: ID50 (the source's name).

As for `Nc1ncnc2c1ncn2[C@@H]1O[C@H](CO)[C@@H](O)[C@@H]1O` [Ara-A], the IC50 in series [1] (setting [4]) was 12.5 µg/mL (≈ 46.8 µM). This molecule came in with an MCC at 72 h in series [2] (vero cells) of 100 µg/mL.

As for `O=c1[nH]c(=O)n([C@H]2C[C@H](O)[C@@H](CO)O2)cc1Br` [BUDR], the IC50 in series [1] (setting [5]) was determined as 25 µg/mL (≈ 81.4 µM). The molecule also showed an MCC at 72 h in series [2] (vero cells) of 100 µg/mL.

`O=c1[nH]c(=O)n([C@H]2C[C@H](O)[C@@H](CO)O2)cc1I` [IUDR]: in series [1] (setting [5]), the IC50 stood at 50 µg/mL (≈ 141 µM). In addition, the MCC at 72 h in series [2] (vero cells) was found to be 200 µg/mL.

Regarding `Nc1nc2c(ncn2[C@@H]2C[C@H](CO)[C@H](O)C2)c(=O)[nH]1` [9-[(1R, 3R, 4R)-4-hydroxymethyl-3-hydroxycyclopentan-1-yl]guanine], the IC50 in series [1] (setting [5]) was 0.049 µg/mL (≈ 0.185 µM); in the series on Adenovirus, Type 3, 0.39 µg/mL (≈ 1.47 µM). The MCC at 72 h in series [2] (vero cells) was 12.5 µg/mL. The molecule further came in with an MCC at 192 h in series [3] of 3.13 µg/mL.

Consider `Nc1ccn([C@@H]2O[C@H](CO)[C@@H](O)[C@@H]2O)c(=O)n1` [Ara-C], for which the IC50 in series [1] (setting [4]) came out at 0.39 µg/mL (≈ 1.6 µM). Also, in series [2] (minimum concentration to cause a visible disruption of normal cell morphology, non-infected Vero cells, three days, read-out: Cytotoxicity), the MCC at 72 h came to 0.78 µg/mL.

As to `Nc1nc2c(ncn2COCCO)c(=O)[nH]1` [Acyclovir], the IC50 in series [1] (setting [5]) amounted to 3.13 µg/mL (≈ 13.9 µM); in the series on Adenovirus, Type 3 it was 200 µg/mL (≈ 888 µM). The MCC at 72 h in series [2] (vero cells) amounted to 800 µg/mL. The MCC at 192 h in series [3] was 400 µg/mL.
